Earlier results, collected in patent US12324431B2, “Compositions and methods for scalable production and delivery of biologicals” (priority 2017, dated 2025).

Tested on: insects
Conditions: potency similar to imidacloprid

Substance: orally active insecticidal peptide-1 [OAIP-1]
- toxicity to insects: highly toxic
